For assay [1], the system named is S2+ InsP3R-1. The assay is described as follows: Potentiation of CCh-induced Ca2+ release after PKA activation (forskolin), S2+ InsP3R-1 constructs in DT-40 3ko cells. The assay is classed as cell-based, rat. The following applies: 30 min pretreatment, cells expressing S2+ InsP3R-1. The method, then:
DT-40 cells lacking all three InsP3 receptor subtypes DT-40 3ko were transfected using electroporation, 350 V and 950 μF. 2×10^7 cells were co-transfected with 25 μg of the InsP3R cDNA, 25 μg of the muscarinic type 3 (M3) receptor, and 4 μg of the red fluorescent protein plasmid pHcRed1-N1. Cells were incubated with DNA in 500 μL of Optimem media on ice for 10 minutes. The cell/DNA mixture was electroporated, incubated on ice for 30 minutes, brought up to 5 ml with Optimem and placed in a 5% C02 incubator at 39° C. for 5 hours. The cells were then centrifuged and resuspended in 12 ml of complete RPMI media. Transfection efficiency was typically ˜20%. Experiments were performed within 32 hours of transfection.
(§1) Transfected DT-40 3ko cells were washed once in a HEPES-buffered physiological saline solution (HEPES-PSS) containing (in mM) 5.5 glucose, 137 NaCl, 0.56 MgCl2, 4.7 KCl, 1 Na2HPO4, 10 HEPES (pH 7.4), 1.2 CaCl2 and 1% w/v Bovine Serum Albumin. Cells were then resuspended in BSA HEPES-PSS with 1 μM Fura-2 (AM), placed on a 15 mm glass coverslip in a low volume perfusion chamber (Warner Instruments) and allowed to adhere for 30 minutes at room temperature. Cells were perfused continually for 10 minutes with HEPES-PSS before experimentation to allow Fura-2 de-esterification. A field of cells for each experiment was chosen that contained a wide range of transfection efficiency based upon the intensity of red fluorescence emitted when excited at 560 nm. [Ca^2+]i imaging was performed essentially as previously described using an inverted epifluorescence Nikon microscope with a 40× oil immersion objective lens (numerical aperture, 1.3). Cells were excited alternately with light at 340 and 380 nm (±10 mn bandpass filters, Chroma) using a monochrometer (TILL Photonics). Fluorescence images were captured and digitized with a digital camera driven by TILL Photonics software. Images were captured every 2 seconds with an exposure of 35 ms and no binning. 340/380 ratio images were calculated online and stored immediately to hard disk.
(§2) The effects of treatment were determined by normalizing the peak change in fluorescence ratio by stimulation following forskolin or 8-Br cGMP exposure to that of stimulation in control HEPES-PSS. Thus, pooled data represents a normalized fold increase over control for the treated trial. Two tailed heteroscedastic t-tests with P values<0.05 were considered to have statistical significance.
Experiments were performed in DT-40 3ko cells transfected with S2^+ InsP3R-1. Since there are no reports of Gαq coupled receptors expressed in DT-40 cells, initial experiments were performed eliciting [Ca^2+]i changes by stimulating the endogenous B cell receptor with α-IgM antibody. […] Thus, in all further experiments, DT-40 3ko cells were co-transfected with the M3 receptor, and HcRed to facilitate identification of transfected cells (inset FIG. 1). Stimulation of M3 receptors with the muscarinic agonist carbachol (CCh), provided a convenient means of stimulating [Ca^2+]i changes, presumably through Gαq-induced activation of phospholipase C and production of InsP3. […] The potentiation was most marked when threshold elevations in [Ca^2+]i were evoked by the initial exposure to CCh and therefore only cells in which the initial CCh treatment evoked a Δ 340/380 ratio of<0.2 ratio units were included for analysis. […] [Ca^2+]i changes were never evoked by CCh treatment in cells transfected with only M3 cDNA in the absence of InsP3R or likewise InsP3R with no M3 cDNA.
The effects of treatment were determined by normalizing the peak change in fluorescence ratio by stimulation following forskolin or 8-Br-cGMP exposure to that of stimulation in control HEPES-PSS. Thus, pooled data represent a normalized fold increase over control for the treated trial. In all cases where statistical significance is indicated, two-tailed heteroscedastic t tests were performed. […]

In assay [2] the test system is S2+ InsP3R-1. The assay is described as follows: Potentiation of CCh-induced Ca2+ release after PKG activation (8-Br cGMP), S2+ InsP3R-1 constructs in DT-40 3ko cells. Type of assay: cell-based, rat. As to conditions: 30 min pretreatment, cells expressing S2+ InsP3R-1. The method, then: as §1, §2
Similar experiments were performed to assess the effects on Ca^2+ release of phosphorylating InsP3R-1 with PKG. Cells transfected with S2^+ InsP3R-1 together with M3 receptor and HcRed were stimulated with low, threshold concentrations of CCh (25-50 nM) followed by a 10 min treatment with 10 μM 8-Br cGMP, a specific activator of PKG [48]. […] In a similar fashion to PKA activation, this was manifested as an increase in the CCh-induced initial peak (FIG. 4A and pooled data FIG. 4E).
The effects of treatment were determined by normalizing the peak change in fluorescence ratio by stimulation following forskolin or 8-Br-cGMP exposure to that of stimulation in control HEPES-PSS. Thus, pooled data represent a normalized fold increase over control for the treated trial. In all cases where statistical significance is indicated, two-tailed heteroscedastic t tests were performed. P values<0.05 were considered to indicate statistical significance and are denoted by an asterisk in the figures.
Despite these differences, experiments were performed to define further the phosphorylation sites important for regulation of Ca^2+ release by PKG. […] In contrast, in cells expressing S2+SE no effect on CCh-induced Ca^2+ release following activation of PKG was observed (FIG. 23C and pooled data in FIG. 23D).

The next assay concerns InsP3R-III. The assay is described as follows: PKA stimulation of Ca2+ signals in DT-40 3ko cells transfected with rat InsP3R-III. The assay is classed as cell-based.

Where no end group is shown, it is not given here. The star is where a group is joined. Myristoyl = CCCCCCCCCCCCCC(=O)*

Take “PKI: cell-permeable PKA inhibitor, myristolyated PKI (Myristoyl-SGRTGRRNA; UniProt P61925 14-22, looked up, fragment) [reference compound]”: the “effect of PKI on forskolin-induced enhancement of Ca^2+ release” value is listed as “completely abolishes” with S2+ InsP3R-1 [1] and “completely abolished” with S2+ InsP3R-1 [1] (listed as myristolyated PKI). The “effect of PKI on 8-Br cGMP-induced enhancement of Ca^2+ release” value is “does not affect” in the assay on S2+ InsP3R-1 [2] and “did not alter” in the assay with S2+ InsP3R-1 [2] (listed as myristolyated PKI).

For “rat InsP3R-III: rat type 3 InsP3 receptor transfected into DT-40 3ko cells”, the “effect of stimulating PKA on Ca^2+ signals” value with InsP3R-III is “inhibited”.

The values above are taken from patent US20080039410A1, “Inositol 1,4,5-Trisphosphate Receptor Mutants and Uses Thereof” (priority 2004, published 2008).
